The target of experiment [1] is T1, AR (Homo sapiens, UniProt P10275, T878A).
T1 construct: endogenous in cells; host or cells: C4-2 cells
T1 sequence (P10275 1-920 T878A): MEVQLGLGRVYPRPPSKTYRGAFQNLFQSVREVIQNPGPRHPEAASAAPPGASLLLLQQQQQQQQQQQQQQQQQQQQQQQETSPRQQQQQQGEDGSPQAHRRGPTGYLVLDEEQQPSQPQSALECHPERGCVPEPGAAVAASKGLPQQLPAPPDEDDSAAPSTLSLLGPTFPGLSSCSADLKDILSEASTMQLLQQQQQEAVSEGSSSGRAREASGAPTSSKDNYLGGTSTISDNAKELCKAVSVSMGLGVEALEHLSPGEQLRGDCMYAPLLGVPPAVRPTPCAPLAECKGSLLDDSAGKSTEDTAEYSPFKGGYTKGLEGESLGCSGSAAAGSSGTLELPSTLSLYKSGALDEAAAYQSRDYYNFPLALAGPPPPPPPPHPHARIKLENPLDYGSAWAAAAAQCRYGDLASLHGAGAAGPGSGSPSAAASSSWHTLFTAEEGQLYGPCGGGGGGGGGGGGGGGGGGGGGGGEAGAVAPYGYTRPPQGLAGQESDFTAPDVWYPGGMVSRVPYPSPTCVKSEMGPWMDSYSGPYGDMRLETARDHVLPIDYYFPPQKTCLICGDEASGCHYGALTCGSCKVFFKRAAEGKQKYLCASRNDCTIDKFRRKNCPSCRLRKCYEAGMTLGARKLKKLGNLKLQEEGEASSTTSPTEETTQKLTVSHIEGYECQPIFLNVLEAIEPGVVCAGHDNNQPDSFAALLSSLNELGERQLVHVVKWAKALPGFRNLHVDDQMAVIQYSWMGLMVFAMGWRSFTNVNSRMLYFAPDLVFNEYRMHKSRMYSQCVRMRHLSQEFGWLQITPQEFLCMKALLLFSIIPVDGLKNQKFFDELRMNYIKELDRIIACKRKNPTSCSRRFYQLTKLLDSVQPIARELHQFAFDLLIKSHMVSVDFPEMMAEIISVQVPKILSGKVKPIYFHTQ
The experiment is described as follows: Western blot of AR protein in C4-2 cells. The format is cell-based. The settings on record: 1 μM to 10 μM, 24 h, relative to GAPDH, FIG. 4A. For orientation: A western blot detects proteins with antibodies after separation by electrophoresis.
Protocol: Cells were then harvested for western blot analysis using antibody to AR (4A), HSP90 (4B), Acetyl-Lysine (4C) or GAPDH (loading control). ImageJ software was used to determine the intensities of the bands relative to the vehicle control for each protein. The values were then divided by the values for GAPDH within the same samples.
Western Blot Analysis. Cells were washed once with phosphate buffered saline (PBS) and then lysed with RIPA buffer (150 mM NaCl, 1% Nonidet P-40, 0.5% sodium deoxycholate, 0.1% SDS, 50 mM Tris of pH 8.0) containing a protease inhibitor cocktail (Pierce, Thermo Fisher Scientific). The cell lysates were then incubated on ice for 40 minutes. Total protein concentrations were estimated using the Bradford Assay (Bio-Rad). Protein samples (10-40 ug) were heated at 95° C. for 5 minutes and resolved by electrophoresis on 8% polyacrylamide-SDS gels and electrophoretically transferred to PVDF membranes (Millipore, Billerica, Mass.). The membranes were then probed overnight at 4° C. with the appropriate primary antibody followed by the appropriate horseradish peroxidase-conjugated secondary antibody.

Experiment [2] concerns AR chromatin association at KLK3 ARE enhancer elements. Nature of the experiment: ChIP of AR at KLK3 enhancer in C4-2 cells. The settings on record: compound 10 μM, R1881 1 nM or 10 nM, 2 h, FIG. 3C.
Protocol: (3C) C4-2 cells plated in hormone-depleted medium were treated with either vehicle, R1881, or the indicated compound for 2 h. Cells were harvested and subjected to ChIP using AR antibody. Taqman probes targeting ARE enhancer elements associated with the KLK3 gene were used to quantify the immunoprecipitated chromatin.
Chromatin Immunoprecipitation (ChIP). […] The ChIP signals were measured by quantitative real time PCR analysis of the immunoprecipitated products.
As a target site for the ChIP assay, the well-established AR binding enhancer elements located 4 kb upstream of the transcription initiation site of the KLK3 gene was chosen.

Take `CC1(C)C(=O)N(c2ccc(C#N)c(C(F)(F)F)c2)C(=S)N1c1ccc(C(=O)NCCCCCCC(=O)NO)c(F)c1` [Compound 2-75, 4-(3-(4-cyano-3-(trifluoromethyl)phenyl)-5,5-dimethyl-4-oxo-2-thioxoimidazolidin-1-yl)-2-fluoro-N-(7-(hydroxyamino)-7-oxoheptyl)benzamide]: in experiment [1], the “AR protein level (degradation)” value is listed as “more efficiently induced AR protein degradation”. The “chromatin association of AR (ChIP signal)” value in experiment [2] is “basal ChIP signal”.

Regarding `CC1(C)C(=O)N(c2ccc(C#N)c(C(F)(F)F)c2)C(=S)N1c1ccc(/C=C/C(=O)NO)c(F)c1` [Compound 1005, (E)-3-(4-(3-(4-cyano-3-(trifluoromethyl)phenyl)-5,5-dimethyl-4-oxo-2-thioxoimidazolidin-1-yl)-2-fluorophenyl)-N-hydroxyacrylamide], in experiment [1], the “AR protein level (degradation)” value is reported as “more efficiently induced AR protein degradation”.

Consider `CNC(=O)c1ccc(N2C(=S)N(c3ccc(C#N)c(C(F)(F)F)c3)C(=O)C2(C)C)cc1F` [Enz, Enzalutamide, reference compound], for which the “chromatin association of AR (ChIP signal)” value in experiment [2] is “basal ChIP signal”.

(Values after patent US9963433B2, “Anticancer drugs including the chemical structures of an androgen receptor ligand and a histone deacetylase inhibitor” (Wayne State University, priority 2016, dated 2018).)
